Reference: US20250042918A1, “COMPOUNDS” (Fundación Del Sector Públlco Estatal Centro Nacional De …, priority 2021, published 2025)

What was measured:
[1] = tested on: Naïve CD4+ T cells, iTreg cells; assay: CD4+ T cell differentiation under iTreg conditions (FoxP3, FACS); type: cell-based, mice; conditions: 12.5 nM
Experimental: (§1) Naïve CD4^+ T cells were purified from mice spleens and lymph nodes using positive selection by magnetic beads (CD4 L3T4 Kit, Miltenyi Biotec, UK). The purified T cells were activated by plate-bound αCD3ε (1 μg/ml; 2C11) and αCD28 (3 μg/ml; 37.51) in the presence or absence of the compound of Example 1 or Cyclosporin A (Sigma Aldrich), and cultured for 72 hrs under Th1 conditions (IL-12 [20 ng/ml]+αIL-4 (11B1) [10 μg/ml]), 72 hrs under Th17 conditions (αIFNγ [10 μg/ml]+αIL-4 [5 μg/ml]+IL-6 [[…]]+TGFβ(5 ng/ml)), and 96 hrs under iTreg conditions (TGFβ (5 ng/ml)) at 37° C.
(§2) Intracellular protein expression was evaluated by first restimulating the cells with phorbol-12-myristate 13-acetate (PMA)(10 ng/ml) (Sigma Aldrich), ionomycin (1 μg/ml) (Sigma Aldrich) and Brefeldin A (5 μg/ml) (eBioscience) for 4-6 hours at 37° C. […] Fc block (93) and all fluorescence dye labelled antibodies used αCD4 (GK1.5), αIFNγ (XMG1.2), αIL-17a (17B7), αFOXP3 (NRRF-30; FJK-16S) were purchased from eBiosciences (Thermo Fisher, UK). Multi-parameter analysis was performed on an LSR/Fortessa (Becton Dickinson Biosciences (BD)) and analysed using FlowJo software (Tree Star).

[2] = tested on: Naïve CD4+ T cells, Th1 cells; assay: CD4+ T cell differentiation under Th1 conditions (IFNγ, ELISA and FACS); type: cell-based, mice
Experimental: as §1
(§3) ELISA kits for mouse IFNγ and IL-17a were purchased from eBioscience (Thermo Fisher, UK) and performed in accordance to manufacturer's instructions using Corning® High Binding ELISA plates (Merck, CLS9018). All ELISAs were analysed using a Synergy MX microplate reader (BioTek).
as §2, with “Multi-parameter analysis was performed on an LSR/Fortessa (Becton Dickinson Biosciences (BD)) and analysed using FlowJo software (Tree Star).” left out

[3] = tested on: BAD S112 phosphorylation in H1299 cells overexpressing PIM-1 (H1299Pim1); assay: BAD S112 phosphorylation inhibition assay (in Cell ELISA); type: cell-based; conditions: Homo sapiens, NCI-H1299, 4 hours, medium without FBS, read-out: BAD PH 1299PIM 1 ELIWO
Experimental: The efficacy of the compounds of the invention on the inhibition of BAD phosphorylation was measured by an in Cell ELISA.
Materials: H1299 cells overexpressing PIM-1 (H1299Pim1). DMSO Plates: 96-well-Polystyrene, Untreated, Round-Bottom plates from Costar (Cat #3797). Cell Plates: 96-Flat bottom biocoated with Poly-D-Lysin plates with lid from Becton Dickinson (Cat #354651). Cell Culture Medium: DMEM high glucose, 10% Fetal Bovine Serum, 2 mM L-Glutamine, P/S. Antibodies: phospho BAD S112 antibody from Cell Signaling (cat. #9291S), anti-rabbit conjugated with peroxidase from Amersham (cat. #3619). Reagent: SuperSignal ELISA femto from Pierce (cat. #1001110).
Procedure: Cells were seeded in 15000 cells per 200 μl per well into 96-well plates and incubated for 16 h at 37° C., 5% CO2. On day two, nine serial 1:2 compound dilutions were made in DMSO in a 96-well plate. The compounds were added to duplicate wells in 96-well cell plates using a FX BECKMAN robot (Beckman Coulter) and were incubated at 37° C. under CO2 atmosphere in medium without fetal bovine serum (FBS). After 4 hours, relative levels of BAD S112 phosphorylation were measured in Cell ELISA using SuperSignal ELISA Femto substrate (Pierce) and read on VICTOR (Perkin Elmer). EC50 values were calculated using ActivityBase from IDBS.

[4] = tested on: HCC1143; assay: In vitro potency against breast cancer cell lines (CellTiter Glo); type: cell-based; conditions: Homo sapiens, HCC1143, 72 h; read-out: absolute IC50 HCC1143
Experimental: (§4) To prepare the complete medium FBS and appropriate additives were added according to the information sheet provided by the vendor and mixed gently. The cell name and complete medium and passage number marked on the flask were checked, and the culture medium removed and discarded using a vacuum pump. […] 3.0 ml of Trypsin-EDTA solution was added to the flask and the cells observed under an inverted microscope until cell layer is dispersed. 8.0 ml of complete growth medium was added and the cells aspirated by gently pipetting. The cell suspension was transferred to a centrifuge tube and centrifuged at 800-1000 rpm for 3-5 minutes. The supernatant was discarded using a vacuum pump, and an appropriate volume of complete medium added. The cell pellet was suspended by gently pipetting, and the cell numbers counted with Vi-cell XR and the cells adjusted to appropriate density. 100 μL of cell suspension to 96-well opaque-walled clear bottom plates was added according to the planned plate layout and the plates placed in the CO2 incubator overnight.
(§5) c. […] Meanwhile the day 0 plate was measured by Cell TiterGlo as listed below.
(§6) d. Cells were incubated with the compounds for 72 h at 5% CO2, 37° C.
(§7) The CellTiter-Glo buffer was thawed and equilibrated to room temperature prior to use. The lyophilized CellTiter-Glo substrate was equilibrated to room temperature prior to use. The appropriate volume of CellTiter-Glo buffer was transferred into the amber bottle containing CellTiter-Glo substrate to reconstitute the lyophilized enzyme/substrate mixture, thereby forming the CellTiter-Glo reagent. Mixing was carried out by gently vortexing, swirling or by inverting the contents to obtain a homogeneous solution, the CellTiter-Glo substrate going into solution easily in less than one minute.
(§8) The plate and its contents were equilibrated to room temperature for approximately 30 minutes, after which 100 μL of CellTiter-Glo reagent was added to the assay plate by Multidrop Combi instrument and the contents mixed for 10 minutes on an orbital shaker to induce cell lysis. The plate was allowed to incubate at room temperature for 10 minutes to stabilize luminescent signal and the clear bottom pasted with white back seal and the luminescence recorded with Enspire with the settings: Luminescence, measurement time 0.1 ms.

[5] = tested on: HCC1954; assay: as above; type: cell-based; conditions: Homo sapiens, HCC1954, 72 h; read-out: absolute IC50 HCC1954
Experimental: as §4, §5, §6, §7, §8

[6] = tested on: T-47D; assay: as above; type: cell-based; conditions: Homo sapiens, T47D, 72 h; read-out: absolute IC50 T-47D
Experimental: as §4, §5, §6, §7, §8

[7] = tested on: BT-474; assay: as above; type: cell-based; conditions: Homo sapiens, BT-474, 72 h; read-out: absolute IC50 BT-474
Experimental: as §4, §5, §6, §7, §8

[8] = tested on: Naïve CD4+ T cells, Th17 cells; assay: CD4+ T cell differentiation under Th17 conditions (IL-17A, ELISA and FACS); type: cell-based, mice
Experimental: as §1, §3
as §2, with “Multi-parameter analysis was performed on an LSR/Fortessa (Becton Dickinson Biosciences (BD)) and analysed using FlowJo software (Tree Star).” left out

**Q.** For `CN1CCOc2c1c(N[C@H]1CC[C@@](C)(O)CC1)nn1c(-c3cccc(OC(F)(F)F)c3)nnc21` [Example 1, 1-Methyl-4-[6-methyl-3-(3-trifluoromethoxy-phenyl)-7,8-dihydro-6H-9-oxa-1,2,3a,4,6-pentaaza-cyclopenta[a]naphthalen-5-ylamino]-cyclohexanol], which “generation of immunoregulatory iTreg cells” value [1] is on record?
**A.** enhancing the generation

**Q.** What about the “expression of the transcription factor FoxP3” value ([1]; 96 hrs iTreg conditions, FACS) of the same compound?
**A.** significantly increased expression

**Q.** What about the “pro-inflammatory Th1 responses” value ([2]; 12.5 nM, 72 hrs Th1 conditions) of the same compound?
**A.** significant suppression

**Q.** What about the “Differentiation of Th1 cells in vitro as determined by the secretion of IFNγ” value ([2]; across a range of concentrations, ELISA and FACS) of the same compound?
**A.** inhibited

**Q.** What about the EC50 [3] of the same compound?
**A.** 8.3 nM

**Q.** And the IC50 [4]?
**A.** 5.56 µM

**Q.** And the IC50 [5]?
**A.** 8.04 µM

**Q.** What about the IC50 [6] of the same compound?
**A.** 6.19 µM

**Q.** What about the IC50 [7] of the same compound?
**A.** 7.77 µM

**Q.** What about the “pro-inflammatory Th17 responses” value ([8]; 12.5 nM, 72 hrs Th17 conditions) of the same compound?
**A.** significant suppression

**Q.** What about the “Differentiation of Th17 cells in vitro as determined by the secretion of IL-17A” value ([8]; at a range of concentrations, ELISA and FACS) of the same compound?
**A.** inhibited
